Test results reported in the supplement of paper PMC13380429.

Tests used:
Conditions in all cases: 72 h
[1] = test system: Caco-2; test: cell viability relative to DMSO; higher = less toxic
[2] = test system: Calu-3; test: as above
[3] = test system: HepG2; test: as above
[4] = test system: U2OS; test: as above
[5] = test system: Vero E6; test: as above
[6] = test system: Caco-2; test: relative viability EC50 (midpoint between 100% and the lowest measured viability); higher = less toxic
[7] = test system: Calu-3; test: as above
[8] = test system: HepG2; test: as above
[9] = test system: U2OS; test: as above
[10] = test system: Vero E6; test: as above
[11] = test system: Caco-2; test: drug sensitivity score (DSS) for viability; higher = more toxic; extreme values may be limits of the assay
[12] = test system: Calu-3; test: as above
[13] = test system: HepG2; test: as above
[14] = test system: U2OS; test: as above
[15] = test system: Vero E6; test: as above

Structure (SMILES)	cell viability ([1]; 1 nM)	cell viability ([1]; 10 nM)	cell viability ([1]; 100 nM)	cell viability ([1]; 1000 nM)	cell viability ([1]; 10000 nM)	cell viability ([2]; 1 nM)	cell viability ([2]; 10 nM)	cell viability ([2]; 100 nM)	cell viability ([2]; 1000 nM)	cell viability ([2]; 10000 nM)	cell viability ([3]; 1 nM)	cell viability ([3]; 10 nM)	cell viability ([3]; 100 nM)	cell viability ([3]; 1000 nM)	cell viability ([3]; 10000 nM)	cell viability ([4]; 1 nM)	cell viability ([4]; 10 nM)	cell viability ([4]; 100 nM)	cell viability ([4]; 1000 nM)	cell viability ([4]; 10000 nM)	cell viability ([5]; 1 nM)	cell viability ([5]; 10 nM)	cell viability ([5]; 100 nM)	cell viability ([5]; 1000 nM)	cell viability ([5]; 10000 nM)	relative viability EC50 [6]	relative viability EC50 [7]	relative viability EC50 [8]	relative viability EC50 [9]	relative viability EC50 [10]	drug sensitivity score [11]	drug sensitivity score [12]	drug sensitivity score [13]	drug sensitivity score [14]	drug sensitivity score [15]
CC(=O)[C@@]1(O)CC[C@H]2[C@@H]3C[C@H](C)C4=CC(=O)CC[C@]4(C)[C@H]3CC[C@@]21C [medroxyprogesterone]	96.8%	96.7%	92.4%	91.7%	89.1%	86.5%	104%	95.6%	104%	103%	94.7%	98.5%	103%	106%	84.1%	105%	97.3%	97.5%	94.4%	94.8%	105%	99.5%	98.1%	99%	89%	> 10 µM	> 10 µM	> 10 µM	> 10 µM	> 10 µM	0	0	0.2	0	0
C[N@+]1(CC2CC2)CC[C@]23c4c5ccc(O)c4O[C@H]2C(=O)CC[C@@]3(O)[C@H]1C5 [methylnaltrexone]	101%	95.6%	99.8%	94.2%	90.8%	104%	95%	107%	97.1%	103%	93.2%	97.7%	91.9%	96.8%	92.3%	104%	95.2%	98.4%	97.5%	99.6%	97.3%	105%	96.9%	97.2%	94.5%	> 10 µM	> 10 µM	> 10 µM	> 10 µM	> 10 µM	0	0	0	0	0
Cc1ncc([N+](=O)[O-])n1CCO [metronidazole]	100%	94.4%	101%	94.9%	98.4%	97.3%	95.9%	109%	97%	102%	97.7%	102%	111%	99.8%	105%	104%	97.6%	98.9%	96.9%	98%	96.8%	99.7%	96.2%	93.5%	100%	> 10 µM	> 10 µM	> 10 µM	> 10 µM	> 10 µM	0	0	0	0	0
